In patent publication US20220296597A1, “USE OF A NEUTROPHIL ELASTASE INHIBITOR IN LUNG DISEASE” (pH Pharma Co., Ltd., priority 2019, published 2022):
Like-named read-outs stand apart in the source and are kept apart here.

Assays:
[1] = Solubility of the drug substance; format: physicochemical
[2] = Hygroscopicity of the drug substance; format: physicochemical; conditions: normal storage conditions
[3] = healthy subjects, cited from earlier work
[4] = non-CF BE patients, 28 days, cited from earlier work
[5] = Example 2 Phase 1 single-ascending dose study in healthy subjects; format: in vivo, human
Description: Following Screening, subjects received single doses of study drug and were monitored during an in-clinic period and an out-patient follow-up period. Subjects were confined to the study site for Study Days −2 through 7 to collect PK and safety assessments. Following discharge from the study site on Study Day 7, subjects returned to the study site on Study Days 14, 21, 28, and 35.

In the case of `CC1=C(C#N)[C@@H](c2ccc(C#N)cc2S(C)(=O)=O)N(C)C(=O)N1c1cccc(C(F)(F)F)c1` [Compound 1, (4S)-4-[4-cyano-2-(methylsulfonyl)phenyl]-3,6-dimethyl-2-oxo-1-[3-(trifluoromethyl)phenyl]-1,2,3,4-tetrahydropyrimidine-5-carbonitrile], the solubility in acetone ([1]; acetone) is reported as “soluble”, the solubility in ethanol ([1]; ethanol) is reported as “very slightly soluble” and the solubility in water ([1]; water) is reported as “practically insoluble”. For the same compound, the hygroscopicity [2] was “not hygroscopic”, the “study drug-induced laboratory or ECG abnormalities” value ([3]; Phase 1 studies) was “No safety signals” and the safety and tolerability ([3]; single and repeated doses up to 1 mg for up to 14 days) was “safe and well tolerated”. The serious adverse events ([3]; three Phase 1 studies) was “no serious AEs (SAEs) were reported”, the safety and tolerability ([4]; 1.0 mg oral IR tablet) was “generally safe and well tolerated” and the “SAEs attributed to the drug” value ([4]; 1.0 mg oral) was “no SAEs were attributed by the investigator to the drug”. The “study drug-induced laboratory parameter or ECG effects” value ([4]; 1.0 mg oral) was “No safety signals”, the subjects with headache ([5]; 36 received Compound 1, single doses 1 to 40 mg) was “one” and the “AE rate compared with placebo” value ([5]; single doses 1 to 40 mg) was “somewhat lower than that in the control (placebo) subjects”. The “effects on laboratory safety evaluations (clinical chemistry and hematology)” value ([5]; single doses 1 to 40 mg) was “no clear effects”, the “exposure (AUC and Cmax) with dose” value ([5]; single doses 1 to 40 mg) was “proportional increases” and the “serious AEs” value ([5]; single doses 1 to 40 mg) was “no serious AEs”.
